Source: PMC6582486, “Stapled EGFR peptide reduces inflammatory breast cancer and inhibits additional HER-driven models of cancer” (Journal of Translational Medicine, 2019)
pIC50: −log10 of the molar value. Where two headings read alike, the source gives them in different places. Where a SMILES comes first, the peptide text is derived from it. Bridges are numbered along the chain shown (N, C = ends). Where no end group is shown, it is not given here. [ ]: non-standard residue; d: D form. R8 = C=CCCCCCC[C@@](C)(N)C(=O)O; S5 = C=CCCC[C@](C)(N)C(=O)O

Experiments:
[1] = test system: MDA-MB-468 breast cancer cells; type: cell-based, human; details: 24 h
Text: Fig. 1 Hydrocarbon stapling leads to increased EJ1 activity in comparison to HER-directed monoclonal therapies. a EJ1 sequence with PTD4 domain (underlined) corresponding to EGFR juxtamembrane domain sequence 643–663. Stabilized alpha helix (SAH) variations 1–5 beneath, with asterisks (*) indicating sites of staple. Control peptide (CP) with altered residues indicated by double underline. Stapled control (5) asterisks (*) indicate sites of staple. b Cartoon representation of EJ1 structure, with staple variation 5 highlighted. Positively charged residues indicated in blue, negatively charged residues in red. c Cartoon representation of CP structure, with staple variation highlighted. d Cell viability assay performed in MDA-MB-468 cells after 24 h comparing unstapled EJ1 versus staple variations SAH1, SAH4, and SAH5, with increasing concentrations. e Visualization of MDA-MB-468 cells untreated, treated with 10 µM EJ1, and 10 µM SAH5-EJ1 after 60 min. Scale bars represent 50 µm. f–h Cell viability assay performed in MDA-MB-468, MCF10A, or CHO cells over 3 days comparing treatment with Sapitinib (blue lines), SAH5-EJ1 (red lines), and SAH5-CP (grey lines). […] Data shown in d, f, g–i represent mean ± percent difference of assays performed in triplicate 1000–3000 cells were plated in 96-well plates (Falcon; Corning, NY) and allowed to adhere for 24–48 h prior to therapeutic introduction. Compounds were added and incubated on cells for 3 days in serum-containing media, followed by 2 h treatment with MTT (Sigma M5655) with the resulting formazan solubilized in DMSO. Absorbance was read at 540 nm by plate reader (uQuant, Bio-Tek Instruments). P-values were calculated from a one-way ANOVA.

[2] = test system: CHO cells; experiment: Cell viability assay (MTT), CHO; type: cell-based, Chinese Hamster; details: up to 3 days
Text: (§1) Fig. 1 Hydrocarbon stapling leads to increased EJ1 activity in comparison to HER-directed monoclonal therapies. a EJ1 sequence with PTD4 domain (underlined) corresponding to EGFR juxtamembrane domain sequence 643–663. Stabilized alpha helix (SAH) variations 1–5 beneath, with asterisks (*) indicating sites of staple. Control peptide (CP) with altered residues indicated by double underline. Stapled control (5) asterisks (*) indicate sites of staple. b Cartoon representation of EJ1 structure, with staple variation 5 highlighted. Positively charged residues indicated in blue, negatively charged residues in red. c Cartoon representation of CP structure, with staple variation highlighted. d Cell viability assay performed in MDA-MB-468 cells after 24 h comparing unstapled EJ1 versus staple variations SAH1, SAH4, and SAH5, with increasing concentrations. e Visualization of MDA-MB-468 cells untreated, treated with 10 µM EJ1, and 10 µM SAH5-EJ1 after 60 min. Scale bars represent 50 µm. f–h Cell viability assay performed in MDA-MB-468, MCF10A, or CHO cells over 3 days comparing treatment with Sapitinib (blue lines), SAH5-EJ1 (red lines), and SAH5-CP (grey lines). […] Absorbance was read at 540 nm by plate reader (uQuant, Bio-Tek Instruments). P-values were calculated from a one-way ANOVA.

[3] = test system: MCF10A breast cells; experiment: Cell viability assay (MTT), MCF10A; type: cell-based, human; details: 72 h of treatment, maximum reduction
Text: as §1

[4] = test system: SUM149 inflammatory breast cancer cells; type: cell-based; details: SUM149, 10 µM
Experimental: 1000–3000 cells were plated in 96-well plates (Falcon; Corning, NY) and allowed to adhere for 24–48 h prior to therapeutic introduction. Compounds were added and incubated on cells for 3 days in serum-containing media, followed by 2 h treatment with MTT (Sigma M5655) with the resulting formazan solubilized in DMSO. Absorbance was read at 540 nm by plate reader (uQuant, Bio-Tek Instruments). P-values were calculated from a one-way ANOVA.
Fig. 4 SAH5-EJ1 effectively treats models of basal and inflammatory breast cancers while increasing survival. a Changes in tumor burden in breast cancer PDX mouse model TM01278 with various concentrations of intravenous SAH5-EJ1. Control represents water as a vehicle control. *p < 0.05 (Control vs 1 µg/g); **p < 0.01 (Control vs 1 µg/g and vs 10 µg/g). N = 6 for each condition. b Kaplan–Meier curve of breast PDX mouse model treated with control (blue) or either 1 or 10 µg/g SAH5-EJ1 (green and red, respectively) (red asterisks indicate time point at which mice could no longer receive injections due to site toxicity). Data shown represent mean. N = 6 for all groups. c Cell viability assay performed in SUM149 cells over 3 days comparing treatment with Sapitinib (blue) to SAH5-EJ1 (red) and SAH5-CP (grey). Solid lines represent 24 h; dashed lines represent 72 h. Data shown represent mean ± percent difference of assays performed in triplicate. d Kaplan–Meier curve of inflammatory breast cancer SUM149-injected mouse model treated with injected control (water) (blue) or either 0.5 or 5 µg/g SAH5-EJ1 (green and red, respectively). Data shown represent mean. N = 8 for all groups. e Changes in tumor burden in SUM149-generated tumors with various doses of SAH5-EJ1. Control represents water (blue). Arrow indicates transition from intravenous (IV) SAH5-EJ1 injections to intraperitoneal (IP) on day 66. **p < 0.01 (Control vs 0.5 µg/g and vs 5 µg/g). Data shown represent mean ± standard deviation. N = 8 for all groups. f Images of mouse tumors taken on Day 116. Arrowheads indicate tumor site. Representative images selected. […]

[5] = cited from earlier work
Text: Despite variations in extracellular ligand binding abilities and intracellular tyrosine kinase activity, HER1-3 share homology in their juxtamembrane domain [15]. Within the juxtamembrane domain are sequences responsible for targeting HER proteins to the nucleus, binding to calcium/calmodulin, trafficking to the basolateral domain from the trans-Golgi network, and dimerization, an event required for HER activation and downstream signaling.

Molecule: CC[C@H](C)[C@H](NC(=O)[C@H](Cc1c[nH]cn1)NC(=O)[C@H](CCCNC(=N)N)NC(=O)[C@H](CCCNC(=N)N)NC(=O)[C@H](CCCNC(=N)N)NC(=O)[C@H](CCSC)NC(=O)[C@H](Cc1ccccc1)NC(=O)[C@H](C)NC(=O)[C@H](CCCNC(=N)N)NC(=O)[C@H](C)NC(=O)[C@H](CCC(N)=O)NC(=O)[C@H](CCCNC(=N)N)NC(=O)[C@H](C)NC(=O)[C@H](C)NC(=O)[C@H](C)NC(=O)[C@H](CCCNC(=N)N)NC(=O)[C@H](C)NC(=O)[C@@H](N)Cc1ccc(O)cc1)C(=O)N[C@]1(C)CCCCCCC=CCCC[C@@](C)(C(=O)N[C@@H](CC(C)C)C(=O)N[C@@H](CC(C)C)C(=O)N[C@@H](CCC(N)=O)C(=O)N[C@@H](CCC(=O)O)C(=O)N[C@@H](CCCNC(=N)N)C(=O)N[C@@H](CCC(=O)O)C(N)=O)NC(=O)[C@H](CCCNC(=N)N)NC(=O)[C@H](CC(C)C)NC(=O)[C@H]([C@@H](C)O)NC(=O)[C@H](CCCNC(=N)N)NC(=O)[C@H](CCCCN)NC(=O)[C@H](CCCNC(=N)N)NC1=O [SAH1-EJ1] (H-YARAAARQARAFMRRRHI[R8]RKRTLR[S5]LLQERE-NH2; staple 19-26)
- pIC50 [1]: 5.00

Molecule: CC[C@H](C)[C@@H]1NC(=O)[C@H](Cc2c[nH]cn2)NC(=O)[C@H](CCCNC(=N)N)NC(=O)[C@H](CCCNC(=N)N)NC(=O)[C@H](CCCNC(=N)N)NC(=O)[C@](C)(NC(=O)[C@H](Cc2ccccc2)NC(=O)[C@H](C)NC(=O)[C@H](CCCNC(=N)N)NC(=O)[C@H](C)NC(=O)[C@H](CCC(N)=O)NC(=O)[C@H](CCCNC(=N)N)NC(=O)[C@H](C)NC(=O)[C@H](C)NC(=O)[C@H](C)NC(=O)[C@H](CCCNC(=N)N)NC(=O)[C@H](C)NC(=O)[C@@H](N)Cc2ccc(O)cc2)CCCCCCC=CCCC[C@@](C)(C(=O)N[C@@H](CCCCN)C(=O)N[C@@H](CCCNC(=N)N)C(=O)N[C@H](C(=O)N[C@@H](CC(C)C)C(=O)N[C@@H](CCCNC(=N)N)C(=O)N[C@@H](CCCNC(=N)N)C(=O)N[C@@H](CC(C)C)C(=O)N[C@@H](CC(C)C)C(=O)N[C@@H](CCC(N)=O)C(=O)N[C@@H](CCC(=O)O)C(=O)N[C@@H](CCCNC(=N)N)C(=O)N[C@@H](CCC(=O)O)C(N)=O)[C@@H](C)O)NC(=O)[C@H](C(C)C)NC1=O [SAH4-EJ1] (H-YARAAARQARAF[R8]RRRHIV[S5]KRTLRRLLQERE-NH2; staple 13-20)
- pIC50 [1]: 5.00

Molecule: CNC(=O)CN1CCC(Oc2cc3c(Nc4cccc(Cl)c4F)ncnc3cc2OC)CC1 [Sapitinib, reference compound]
- efficacy / response in words [2]: limited efficacy
- reduction of cell viability [3]: ≤ 70%
- cell viability ([4]; 24 h): no reduction in cell viability
- cell viability ([4]; 3 days): 35%

Molecule: YARAAARQARAFMRRRHIVRKRTLRRLLQERE [EJ1]
- time to degradation when introduced to plasma [5]: less than 5 min
- pIC50 [1]: 4.74
